The results in this text go back to US10184134B2, “Soybean event SYHT0H2 and compositions and methods for detection thereof” (Syngenta Participations AG, priority 2010, dated 2019).

What all share (type): in vivo
Assay [1] deals with non-transgenic soybean line Jack. The assay can be described thus: Field efficacy against glufosinate, non-transgenic soybean line Jack. To be noted: 900 g ai/ha glufosinate at V2/V3 stage and second treatment at V5-V6 stage, 8 locations in the United States. The method, then: (§1) SYHT0H2 soybean plants were tested for efficacy against glufosinate in 8 locations in the United States. The non-transgenic soybean line Jack was used as a control. Soybean plants, both SYHT0H2 and Jack, were treated with 900 g ai/ha of glufosinate at the V2/V3 stage and then a second treatment at the V5-V6 stage. They were then assessed for percentage of leaves showing injury at 4-8 days after treatment (DAT), 13-20 DAT, and 26-35 DAT.

A further assay relates to SYHT0H2 soybean plants. Description: Field efficacy against glufosinate, SYHT0H2 soybean plants. Conditions: 900 g ai/ha glufosinate at V2/V3 stage and second treatment at V5-V6 stage, 8 locations in the United States. The method, then:
as §1

For assay [2], the system named is non-transgenic soybean line Jack. The assay can be described thus: Field efficacy against mesotrione, non-transgenic soybean line Jack. Conditions: 210 g ai/ha mesotrione at V2/V3 stage, 5 locations in the United States. On the procedure:
(§2) Event SYHT0H2 soybean plants were tested for efficacy against mesotrione in 5 locations in the United States. The non-transgenic soybean line Jack was used as a control. Soybean plants, both SYHT0H2 and Jack, were treated with 210 g ai/ha of mesotrione at the V2/V3 stage and then assessed for percentage of leaves showing injury at 4-7 days after treatment (DAT), 13-17 DAT, and 25-33 DAT.

Assay [3] deals with Event SYHT0H2 soybean plants. Description: Field efficacy against mesotrione, event SYHT0H2 soybean plants. Conditions: 210 g ai/ha mesotrione at V2/V3 stage, 5 locations in the United States. The method, then:
as §2

For assay [4], the system named is Event SYHT0H2 soybean plants. The assay can be described thus: Herbicide tolerance performance of transgenic soybean transformants. To be noted: event SYHT0H2 from a population of about 90 transformants. An excerpt: After plants became established in the soil and new growth appeared (˜1-2 weeks), plants were sampled and tested for the presence of desired transgene by TAQMAN® analysis using appropriate probes for the HPPD genes, or promoters (for example prCMP). Positive plants were transplanted into 4″ square pots containing Fafard #3 soil. Sierra 17-6-12 slow release fertilizer was incorporated into the soil at the recommended rate. The plants were then relocated into a standard greenhouse to acclimatize (˜1 week). The environmental conditions were: 27° C. day; 21° C. night; 14 hour photoperiod (with supplemental light); ambient humidity. After acclimatizing (˜1 week), the plants were sampled and tested in detail for the presence and copy number of inserted transgenes. Transgenic soybean plants were grown to maturity for T1 seed production. T1 plants were grown up, and after TAQMAN® analysis, homozygous plants were grown for seed production. Transgenic seeds and progeny plants were used to further evaluate their herbicide tolerance performance and molecular characteristics.

On to “2-amino-4-methylphosphinobutyric acid [glufosinate]”, for which the “% Injury (percentage of leaves showing injury)” value in assay [1] (4-8 DAT) worked out at 100%; in assay [1] (13-20 DAT) it was 100%; in assay [1] (26-35 DAT), 100%; in the assay on SYHT0H2 soybean plants (4-8 DAT), 9%; in the assay on SYHT0H2 soybean plants (13-20 DAT), 5%; in the assay on SYHT0H2 soybean plants (26-35 DAT) it was 0%.
`CS(=O)(=O)c1ccc(C(=O)C2C(=O)CCCC2=O)c([N+](=O)[O-])c1` [mesotrione]: the “% Injury (percentage of leaves showing injury)” value in assay [2] (4-7 DAT) was determined as 46.5%; in assay [2] (13-17 DAT), 81%; in assay [2] (25-33 DAT) it was 62.4%; in assay [3] (4-7 DAT) it was 13.2%; in assay [3] (13-17 DAT) it was 4.7%; in assay [3] (25-33 DAT), 0%. The “herbicide tolerance of event SYHT0H2” value in assay [4] is reported as “high level of mesotrione tolerance”.
